In US20260232749A1, “Plant-Based Compositions And Methods For Modulation of Inflammatory Response Post Viral Infection” (VDF Futureceuticals, Inc., priority 2023, published 2026):
“Also recorded” adds a separate entry of the source.

Legend:
NOX2 = target: T1, NOX2 (Homo sapiens, UniProt P04839); experiment: eCMA-PHAGO-NOX2: NOX2-dependent ROS generation in capillary blood (ESR) after single oral dose; assay type: in vivo; conditions: single oral dose (50 mg blend or 1,000 mg vitamin C); subjects 18-24 days after moderate COVID-19; 30-180 min after administration
T1 sequence (P04839 2-570 limits assumed): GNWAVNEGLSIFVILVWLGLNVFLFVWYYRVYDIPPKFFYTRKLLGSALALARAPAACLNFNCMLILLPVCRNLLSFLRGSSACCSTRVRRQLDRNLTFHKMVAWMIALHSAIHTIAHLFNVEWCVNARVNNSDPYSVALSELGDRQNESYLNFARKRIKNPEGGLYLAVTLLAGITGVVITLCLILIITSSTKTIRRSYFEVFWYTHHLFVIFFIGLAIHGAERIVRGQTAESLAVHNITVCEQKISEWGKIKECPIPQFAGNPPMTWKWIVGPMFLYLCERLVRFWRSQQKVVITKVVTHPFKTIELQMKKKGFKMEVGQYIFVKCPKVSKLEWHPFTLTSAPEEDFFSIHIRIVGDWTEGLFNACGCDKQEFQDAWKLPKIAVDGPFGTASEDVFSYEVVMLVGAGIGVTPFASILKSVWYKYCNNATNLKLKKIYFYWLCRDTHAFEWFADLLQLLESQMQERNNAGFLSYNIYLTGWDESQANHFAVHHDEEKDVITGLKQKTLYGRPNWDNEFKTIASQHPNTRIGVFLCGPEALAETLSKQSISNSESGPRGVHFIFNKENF
T1 sequence (P13498 2-195 partner limits assumed): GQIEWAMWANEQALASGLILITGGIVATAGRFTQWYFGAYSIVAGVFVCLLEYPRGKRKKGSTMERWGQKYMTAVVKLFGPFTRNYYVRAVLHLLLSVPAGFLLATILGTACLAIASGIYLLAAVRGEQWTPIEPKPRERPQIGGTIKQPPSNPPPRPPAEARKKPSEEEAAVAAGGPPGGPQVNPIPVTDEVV

iNOS = iNOS (Homo sapiens, UniProt P35228); experiment: eCMA-iNOS: iNOS-dependent ROS generation in capillary blood (ESR) after single oral dose; assay type: in vivo; conditions: over three hours after single oral dose (50 mg blend or 1,000 mg vitamin C); FIG. 2
[1] = system: TNF-α induced H2O2 formation; experiment: inflammatory resistance assay: ex vivo TNF-α induced extracellular H2O2 generation by blood cells; assay type: in vivo, human; conditions: single oral dose 50 mg blend or 1,000 mg vitamin C

O=C1O[C@H]([C@@H](O)CO)C(O)=C1O [vitamin C]
inhibition of NOX2-dependent ROS generation (NOX2): 45% | change in iNOS dependent cellular metabolic activity, in words (iNOS): no notable effect | suppression of extracellular H2O2 induced by TNF-α, in words ([1]; TNF-α 40 ng/ml (comparable to acute viral infection), FIG. 5A): similarly suppress | reduction of high dose TNFα-induced H2O2 formation, in words ([1]; TNFα 200 ng/ml ("Cytokine Storm"), FIG. 5B): equal potential to reduce; also recorded: similar
